What all share (experiment): relative viability (nuclei count vs DMSO), 5 days (fraction); higher = more cells survive
Compound in the assay “RAF265 + Foretinib”: Cn1c(Nc2ccc(C(F)(F)F)cc2)nc2cc(Oc3ccnc(-c4ncc(C(F)(F)F)[nH]4)c3)ccc21 [RAF265] + COc1cc2c(Oc3ccc(NC(=O)C4(C(=O)Nc5ccc(F)cc5)CC4)cc3F)ccnc2cc1OCCCN1CCOCC1 [Foretinib] (partner 0.25 µM)
In outline:
(§1)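 One day after seeding in 1536-well plates, lung cancer cell lines were dosed by pin tool. Dosing was either single-drug or a fixed anchor-drug dose plus five library-drug doses (not always all listed) in √10 steps. After 5 days, nuclei were stained in one fix-and-stain step and counted on 4× images, and relative viability is the nuclei count of treated wells over that of vehicle wells, given as the median of duplicate plates.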

Compound in the assay “RAF265 + Pictilisib”: Cn1c(Nc2ccc(C(F)(F)F)cc2)nc2cc(Oc3ccnc(-c4ncc(C(F)(F)F)[nH]4)c3)ccc21 [RAF265] + CS(=O)(=O)N1CCN(Cc2cc3nc(-c4cccc5[nH]ncc45)nc(N4CCOCC4)c3s2)CC1 [Pictilisib] (partner 1 µM)
Summed up:
as §1

Compound in the assay “Doramapimod + OSI-027”: Cc1ccc(-n2nc(C(C)(C)C)cc2NC(=O)Nc2ccc(OCCN3CCOCC3)c3ccccc23)cc1 [Doramapimod] + COc1cccc2cc(-c3nc([C@H]4CC[C@H](C(=O)O)CC4)n4ncnc(N)c34)[nH]c12 [OSI-027] (partner 0.5 µM)
Summed up: as §1

Compound in the assay “RAF265 + Palbociclib”: Cn1c(Nc2ccc(C(F)(F)F)cc2)nc2cc(Oc3ccnc(-c4ncc(C(F)(F)F)[nH]4)c3)ccc21 [RAF265] + CC(=O)c1c(C)c2cnc(Nc3ccc(N4CCNCC4)cn3)nc2n(C2CCCC2)c1=O [Palbociclib] (partner 0.5 µM)
In outline: as §1

Turning to HARA, the relative viability in the assay with RAF265 + Foretinib (first compound 0.01 µM) is 0.573; in the assay with RAF265 + Foretinib (first compound 0.03162 µM) it was 0.777; in the assay with RAF265 + Foretinib (first compound 0.1 µM), 0.931; with RAF265 + Foretinib (first compound 0.3162 µM), 0.53; with RAF265 + Foretinib (first compound 1 µM), 0.38; with RAF265 + Pictilisib (first compound 0.01 µM) it was 0.367. Further, the relative viability with RAF265 + Pictilisib (first compound 0.03162 µM) turned out to be 0.267; with RAF265 + Pictilisib (first compound 0.1 µM), 0.271; with RAF265 + Pictilisib (first compound 0.3162 µM) it was 0.287; in the assay with RAF265 + Pictilisib (first compound 1 µM), 0.134; with Doramapimod + OSI-027 (first compound 0.02 µM), 0.482; in the assay with Doramapimod + OSI-027 (first compound 0.06325 µM) it was 0.371. In addition, the relative viability with Doramapimod + OSI-027 (first compound 0.2 µM) was determined as 0.392; in the assay with Doramapimod + OSI-027 (first compound 2 µM), 0.327; with RAF265 + Palbociclib (first compound 0.01 µM), 0.298; with RAF265 + Palbociclib (first compound 0.03162 µM) it was 0.277; with RAF265 + Palbociclib (first compound 0.1 µM), 0.235; in the assay with RAF265 + Palbociclib (first compound 0.3162 µM), 0.215. Moreover, the relative viability in the assay with RAF265 + Palbociclib (first compound 1 µM) was 0.178.
As to HCC-15, the relative viability in the assay with RAF265 + Foretinib (first compound 0.01 µM) was 1.03; in the assay with RAF265 + Foretinib (first compound 0.03162 µM), 1.04; in the assay with RAF265 + Foretinib (first compound 0.1 µM) it was 0.991; with RAF265 + Foretinib (first compound 0.3162 µM), 0.883; with RAF265 + Foretinib (first compound 1 µM) it was 0.673; in the assay with RAF265 + Pictilisib (first compound 0.01 µM), 0.805. Further, the relative viability turned out to be 0.625 with RAF265 + Pictilisib (first compound 0.03162 µM); 0.645 with RAF265 + Pictilisib (first compound 0.1 µM); 0.49 in the assay with RAF265 + Pictilisib (first compound 0.3162 µM); 0.333 with RAF265 + Pictilisib (first compound 1 µM); 0.688 in the assay with Doramapimod + OSI-027 (first compound 0.02 µM); 0.645 with Doramapimod + OSI-027 (first compound 0.06325 µM). For the same cell line, the relative viability with Doramapimod + OSI-027 (first compound 0.2 µM) turned out to be 0.68; with Doramapimod + OSI-027 (first compound 2 µM) it was 0.539; with RAF265 + Palbociclib (first compound 0.01 µM), 0.71; in the assay with RAF265 + Palbociclib (first compound 0.03162 µM) it was 0.825; with RAF265 + Palbociclib (first compound 0.1 µM), 0.672; with RAF265 + Palbociclib (first compound 0.3162 µM), 0.537. Moreover, in the assay with RAF265 + Palbociclib (first compound 1 µM), the relative viability is 0.27.
With HCC-44, the relative viability turned out to be 0.631 in the assay with RAF265 + Pictilisib (first compound 0.01 µM); 0.697 with RAF265 + Pictilisib (first compound 0.03162 µM); 0.55 with RAF265 + Pictilisib (first compound 0.1 µM); 0.507 in the assay with RAF265 + Pictilisib (first compound 0.3162 µM); 0.561 with RAF265 + Pictilisib (first compound 1 µM); 0.563 in the assay with Doramapimod + OSI-027 (first compound 0.02 µM). The relative viability with Doramapimod + OSI-027 (first compound 0.06325 µM) turned out to be 0.607; with Doramapimod + OSI-027 (first compound 0.2 µM), 0.625; with Doramapimod + OSI-027 (first compound 0.6325 µM) it was 0.463; with Doramapimod + OSI-027 (first compound 2 µM), 0.433; with RAF265 + Palbociclib (first compound 0.01 µM), 1.01; in the assay with RAF265 + Palbociclib (first compound 0.03162 µM) it was 0.908. The results for the relative viability with RAF265 + Palbociclib (first compound 0.1 µM), in the assay with RAF265 + Palbociclib (first compound 0.3162 µM) and with RAF265 + Palbociclib (first compound 1 µM) were 0.96, 1.04 and 1.01, respectively.
Turning to HCC-78, the relative viability came to 0.512 with RAF265 + Foretinib (first compound 0.01 µM); 0.587 with RAF265 + Foretinib (first compound 0.03162 µM); 0.583 in the assay with RAF265 + Foretinib (first compound 0.1 µM); 0.617 with RAF265 + Foretinib (first compound 0.3162 µM); 0.526 in the assay with RAF265 + Foretinib (first compound 1 µM); 0.224 with RAF265 + Pictilisib (first compound 0.01 µM). In addition, the relative viability in the assay with RAF265 + Pictilisib (first compound 0.03162 µM) amounted to 0.216; with RAF265 + Pictilisib (first compound 0.1 µM) it was 0.291; with RAF265 + Pictilisib (first compound 0.3162 µM), 0.171; with RAF265 + Pictilisib (first compound 1 µM), 0.145; in the assay with Doramapimod + OSI-027 (first compound 0.02 µM), 0.372; in the assay with Doramapimod + OSI-027 (first compound 0.06325 µM), 0.362. Also, the relative viability in the assay with Doramapimod + OSI-027 (first compound 0.2 µM) is 0.365; with Doramapimod + OSI-027 (first compound 0.6325 µM), 0.358; in the assay with Doramapimod + OSI-027 (first compound 2 µM), 0.299; in the assay with RAF265 + Palbociclib (first compound 0.01 µM), 0.513; in the assay with RAF265 + Palbociclib (first compound 0.03162 µM), 0.476; with RAF265 + Palbociclib (first compound 0.1 µM) it was 0.458. The relative viability with RAF265 + Palbociclib (first compound 0.3162 µM) was determined as 0.394; in the assay with RAF265 + Palbociclib (first compound 1 µM), 0.463.
Consider HCC-366, for which the relative viability in the assay with RAF265 + Foretinib (first compound 0.01 µM) is 0.99; with RAF265 + Foretinib (first compound 0.03162 µM), 0.841; with RAF265 + Foretinib (first compound 0.1 µM) it was 0.9; with RAF265 + Foretinib (first compound 0.3162 µM), 0.996; with RAF265 + Foretinib (first compound 1 µM) it was 0.914; in the assay with RAF265 + Pictilisib (first compound 0.01 µM) it was 0.18. Also, the relative viability with RAF265 + Pictilisib (first compound 0.03162 µM) worked out at 0.211; with RAF265 + Pictilisib (first compound 0.1 µM) it was 0.181; with RAF265 + Pictilisib (first compound 0.3162 µM) it was 0.189; with RAF265 + Pictilisib (first compound 1 µM) it was 0.147; with Doramapimod + OSI-027 (first compound 0.02 µM) it was 0.837; with Doramapimod + OSI-027 (first compound 0.06325 µM) it was 0.918. In addition, the relative viability in the assay with Doramapimod + OSI-027 (first compound 0.2 µM) was determined as 0.937; with Doramapimod + OSI-027 (first compound 0.6325 µM), 1.08; with Doramapimod + OSI-027 (first compound 2 µM), 0.853; with RAF265 + Palbociclib (first compound 0.01 µM), 0.403; in the assay with RAF265 + Palbociclib (first compound 0.03162 µM) it was 0.312; with RAF265 + Palbociclib (first compound 0.1 µM), 0.286. The relative viability in the assay with RAF265 + Palbociclib (first compound 0.3162 µM) was found to be 0.205; with RAF265 + Palbociclib (first compound 1 µM) it was 0.137.
On to HCC-827, for which the relative viability with RAF265 + Foretinib (first compound 0.01 µM) was found to be 0.986; with RAF265 + Foretinib (first compound 0.03162 µM), 0.971; with RAF265 + Foretinib (first compound 0.1 µM), 1.06; with RAF265 + Foretinib (first compound 1 µM), 0.729; with RAF265 + Pictilisib (first compound 0.01 µM) it was 0.99; in the assay with RAF265 + Pictilisib (first compound 0.03162 µM), 1.04. In addition, the relative viability in the assay with RAF265 + Pictilisib (first compound 0.1 µM) came to 1.05; with RAF265 + Pictilisib (first compound 1 µM) it was 0.571; with Doramapimod + OSI-027 (first compound 0.02 µM), 0.715; with Doramapimod + OSI-027 (first compound 0.06325 µM), 0.762; with Doramapimod + OSI-027 (first compound 0.2 µM), 0.756; with Doramapimod + OSI-027 (first compound 0.6325 µM), 0.763. Further, the relative viability in the assay with Doramapimod + OSI-027 (first compound 2 µM) was found to be 0.544; with RAF265 + Palbociclib (first compound 0.01 µM) it was 0.462; in the assay with RAF265 + Palbociclib (first compound 0.03162 µM), 0.494; in the assay with RAF265 + Palbociclib (first compound 0.1 µM), 0.489; in the assay with RAF265 + Palbociclib (first compound 1 µM), 0.395.
Regarding HOP-62, the relative viability with RAF265 + Foretinib (first compound 0.01 µM) was 1.14; with RAF265 + Foretinib (first compound 0.03162 µM) it was 0.979; in the assay with RAF265 + Foretinib (first compound 0.1 µM), 0.973; in the assay with RAF265 + Foretinib (first compound 0.3162 µM), 1.04; with RAF265 + Foretinib (first compound 1 µM), 0.852; with RAF265 + Pictilisib (first compound 0.01 µM) it was 0.641. Moreover, the relative viability with RAF265 + Pictilisib (first compound 0.1 µM) is 0.726; with RAF265 + Pictilisib (first compound 0.3162 µM) it was 0.426; with RAF265 + Pictilisib (first compound 1 µM) it was 0.179; with Doramapimod + OSI-027 (first compound 0.02 µM) it was 0.828; in the assay with Doramapimod + OSI-027 (first compound 0.06325 µM) it was 0.81; with Doramapimod + OSI-027 (first compound 0.2 µM), 0.906. For the same cell line, the relative viability with Doramapimod + OSI-027 (first compound 0.6325 µM) stood at 0.923; with Doramapimod + OSI-027 (first compound 2 µM), 0.741; with RAF265 + Palbociclib (first compound 0.01 µM), 0.416; in the assay with RAF265 + Palbociclib (first compound 0.03162 µM) it was 0.457; with RAF265 + Palbociclib (first compound 0.1 µM) it was 0.423; with RAF265 + Palbociclib (first compound 0.3162 µM), 0.392. Further, the relative viability with RAF265 + Palbociclib (first compound 1 µM) came out at 0.216.

The record behind these values is the supplement of paper PMC10307832.
